Source: PMC7023430, “4-Aminobenzoic Acid Derivatives: Converting Folate Precursor to Antimicrobial and Cytotoxic Agents” (Biomolecules, 2019)
≈ marks a conversion by molar mass, not a printed value. Read-outs that look alike come from different tables or passages of the source.

How the values were obtained:
Format in all cases: cell-based
[1] = tested on: Trichosporon asahii 1188; assay: Antifungal microdilution broth method, T. asahii
Procedure, shortened: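 Duplicate microdilution tests in RPMI-1640 (2% glucose, L-glutamine, MOPS, pH 7.0) with twofold compound dilutions from DMSO gave visually determined MICs. Results counted only when duplicates agreed to within one step; protocol adapted from EUCAST.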

[2] = tested on: Enterococcus faecalis ATCC 29212, CCM 4224; assay: Antibacterial microdilution broth method, E. faecalis; conditions: Enterococcus faecalis
[3] = tested on: Mycobacterium avium 330/88; assay: Antimycobacterial micromethod in Šula's medium, M. avium
[4] = tested on: Mycobacterium tuberculosis H37Rv (331/88); assay: Antimycobacterial micromethod in Šula's medium, M. tuberculosis
[5] = tested on: eight fungal strains; assay: Antifungal activity; conditions: statement over the fungal panel; time not stated
Protocol: The antifungal properties were evaluated against five yeast strains, namely: Candida albicans ATCC 44859, Candida tropicalis 156, Candida krusei […], Candida glabrata 20/I, Trichosporon […] 1188 and three strains of filamentous fungi: Aspergillus fumigatus 231, Lichtheimia corymbifera 272, and Trichophyton interdigitale 445. A microdilution broth method was performed according to EUCAST II, III instructions with slight modifications. Briefly, tested compounds were dissolved in DMSO and diluted in a twofold manner with RPMI-1640 medium with L-glutamine, supplemented with 2% glucose (w/v) and buffered to pH 7.0 with 3 morpholinopropane-1-sulfonic acid (all components were purchased from Sigma-Aldrich, USA). […] Positive controls consisted of test microbe solely, while negative controls consisted of medium and DMSO. Internal quality control was included too. Visual inspection was used for MIC endpoints evaluation. The experiments were conducted in duplicates. For the results to be valid, the difference in MIC determined from two parallel measurements must not be greater than one step on the dilution scale. PABA and triazole antimycotic drug fluconazole were involved as the reference compounds.

[6] = tested on: Escherichia coli ATCC 25922, CCM 3954; assay: Antibacterial microdilution broth method, E. coli; conditions: Escherichia coli
[7] = tested on: four Gram-positive and four Gram-negative strains; assay: Antibacterial activity
[8] = tested on: Mtb. 331/88 and three non-tuberculous mycobacterial strains; assay: Antimycobacterial activity; conditions: statement over four mycobacterial strains, time not stated
[9] = 24 h incubation, read-out: MIC EF 24 h
[10] = 48 h incubation, read-out: MIC EF 48 h
[11] = 330/88, 336 h, 14 days incubation at 37 °C, read-out: MIC M. avium 330/88 14 d
[12] = 330/88, 504 h, 21 days incubation at 37 °C, read-out: MIC M. avium 330/88 21 d
[13] = 336 h, 14 days incubation at 37 °C, read-out: MIC Mtb. 331/88 14 d
[14] = 504 h, 21 days incubation at 37 °C, read-out: MIC Mtb. 331/88 21 d
[15] = 24 h incubation, read-out: MIC EC 24 h
[16] = 48 h incubation, read-out: MIC EC 48 h
[17] = time not stated, read-out: MIC, S. epidermidis (1e MRSA, too)

SMILES	MIC ([1]; 24 h, read-out: MIC TA 24 h)	MIC ([1]; 48 h, read-out: MIC TA 48 h)	MIC [2, 9]	MIC [2, 10]	MIC [3, 11]	MIC [3, 12]	MIC [4, 13]	MIC [4, 14]	MIC [5]	MIC, antifungal activity [5]	MIC [6, 15]	MIC [6, 16]	MIC [7, 17]	MIC ([7]; Staphylococcus aureus, MRSA, time not stated, read-out: MIC, multiple Gram-positive strains including MRSA)	MIC ([8]; Mycobacterium tuberculosis)	MIC ([7]; converted from 62.5–125 µM, read-out: MIC, staphylococci)	MIC ([7]; read-out: MIC, three staphylococcal strains)	MIC, antimycobacterial activity [8]	MIC, antibacterial activity ([7]; statement over the bacterial panel, time not stated)
O=C(O)c1ccc(N=Cc2cc(F)ccc2O)cc1 [1b, 4-[(5-Fluoro-2-hydroxybenzylidene)amino]benzoic acid]	> 500 µM	> 500 µM	> 500 µM	> 500 µM	> 1000 µM	> 1000 µM	500 µM (≈ 130 µg/mL)	500 µM (≈ 130 µg/mL)	> 500 µM	not translated into any antifungal action	> 500 µM	> 500 µM	–	–	–	–	–	–	–
O=C(O)c1ccc(N=Cc2cc(Cl)ccc2O)cc1 [1c, 4-[(5-Chloro-2-hydroxybenzylidene)amino]benzoic acid]	> 125 µM	> 125 µM	> 500 µM	> 500 µM	1000 µM (≈ 276 µg/mL)	> 1000 µM	250 µM (≈ 68.9 µg/mL)	500 µM (≈ 138 µg/mL)	–	–	> 500 µM	> 500 µM	≥ 62.5 µM	–	–	–	–	–	–
O=C(O)c1ccc(N=Cc2cc(Br)ccc2O)cc1 [1d, 4-[(5-Bromo-2-hydroxybenzylidene)amino]benzoic acid]	125 µM (≈ 40 µg/mL)	125 µM (≈ 40 µg/mL)	> 250 µM	> 250 µM	500 µM (≈ 160 µg/mL)	500 µM (≈ 160 µg/mL)	250 µM (≈ 80 µg/mL)	500 µM (≈ 160 µg/mL)	–	–	> 250 µM	> 250 µM	≥ 62.5 µM	–	–	–	–	–	–
O=C(O)c1ccc(N=Cc2cc(I)ccc2O)cc1 [1e, 4-[(2-Hydroxy-5-iodobenzylidene)amino]benzoic acid]	62.5 µM (≈ 22.9 µg/mL)	62.5 µM (≈ 22.9 µg/mL)	> 250 µM	> 250 µM	500 µM (≈ 184 µg/mL)	500 µM (≈ 184 µg/mL)	250 µM (≈ 91.8 µg/mL)	250 µM (≈ 91.8 µg/mL)	≥ 31.2 µM	–	> 250 µM	> 250 µM	≥ 62.5 µM	–	–	–	–	–	–
O=C(O)c1ccc(N=Cc2cc([N+](=O)[O-])ccc2O)cc1 [1f, 4-[(2-Hydroxy-5-nitrobenzylidene)amino]benzoic acid]	500 µM (≈ 143 µg/mL)	500 µM (≈ 143 µg/mL)	500 µM (≈ 143 µg/mL)	500 µM (≈ 143 µg/mL)	1000 µM (≈ 286 µg/mL)	> 1000 µM	250 µM (≈ 71.6 µg/mL)	500 µM (≈ 143 µg/mL)	≥ 250 µM	–	> 500 µM	> 500 µM	–	≥ 250 µM	–	–	–	–	–
Cc1ccc(O)c(C=Nc2ccc(C(=O)O)cc2)c1 [1g, 4-[(2-Hydroxy-5-methylbenzylidene)amino]benzoic acid]	> 125 µM	> 125 µM	> 500 µM	> 500 µM	> 1000 µM	> 1000 µM	500 µM (≈ 128 µg/mL)	500 µM (≈ 128 µg/mL)	–	not translated into any antifungal action	> 500 µM	> 500 µM	–	–	–	–	–	–	–
COc1ccc(O)c(C=Nc2ccc(C(=O)O)cc2)c1 [1h, 4-[(2-Hydroxy-5-methoxybenzylidene)amino]benzoic acid]	500 µM (≈ 136 µg/mL)	500 µM (≈ 136 µg/mL)	> 500 µM	> 500 µM	1000 µM (≈ 271 µg/mL)	1000 µM (≈ 271 µg/mL)	250 µM (≈ 67.8 µg/mL)	500 µM (≈ 136 µg/mL)	≥ 250 µM	–	> 500 µM	> 500 µM	–	–	–	–	–	–	–
CC(C)(C)c1ccc(O)c(C=Nc2ccc(C(=O)O)cc2)c1 [1j, 4-{[5-(Tert-butyl)-2-hydroxybenzylidene]amino}benzoic acid]	> 500 µM	> 500 µM	> 500 µM	> 500 µM	1000 µM (≈ 297 µg/mL)	> 1000 µM	250 µM (≈ 74.3 µg/mL)	250 µM (≈ 74.3 µg/mL)	–	not translated into any antifungal action	> 500 µM	> 500 µM	–	–	–	–	–	–	–
O=C(O)c1ccc(N=Cc2c(O)cccc2Cl)cc1 [1k, 4-[(2-Chloro-6-hydroxybenzylidene)amino]benzoic acid]	125 µM (≈ 34.5 µg/mL)	> 125 µM	> 500 µM	> 500 µM	500 µM (≈ 138 µg/mL)	1000 µM (≈ 276 µg/mL)	250 µM (≈ 68.9 µg/mL)	500 µM (≈ 138 µg/mL)	–	–	> 500 µM	> 500 µM	–	–	–	–	–	–	–
O=C(O)c1ccc(N=Cc2ccc(Cl)cc2O)cc1 [1l, 4-[(4-Chloro-2-hydroxybenzylidene)amino]benzoic acid]	500 µM (≈ 138 µg/mL)	> 500 µM	> 500 µM	> 500 µM	1000 µM (≈ 276 µg/mL)	1000 µM (≈ 276 µg/mL)	250 µM (≈ 68.9 µg/mL)	500 µM (≈ 138 µg/mL)	≥ 250 µM	–	> 500 µM	> 500 µM	–	–	–	–	–	–	–
O=C(O)c1ccc(N=Cc2cccc(Cl)c2O)cc1 [1m, 4-[(3-Chloro-2-hydroxybenzylidene)amino]benzoic acid]	125 µM (≈ 34.5 µg/mL)	125 µM (≈ 34.5 µg/mL)	> 500 µM	> 500 µM	1000 µM (≈ 276 µg/mL)	1000 µM (≈ 276 µg/mL)	500 µM (≈ 138 µg/mL)	500 µM (≈ 138 µg/mL)	≥ 31.2 µM	–	> 500 µM	> 500 µM	–	–	–	–	–	–	–
O=C(O)c1ccc(N=Cc2cc(Cl)cc(Cl)c2O)cc1 [1n, 4-[(3,5-Dichloro-2-hydroxybenzylidene)amino]benzoic acid]	125 µM (≈ 38.8 µg/mL)	125 µM (≈ 38.8 µg/mL)	> 500 µM	> 500 µM	1000 µM (≈ 310 µg/mL)	1000 µM (≈ 310 µg/mL)	500 µM (≈ 155 µg/mL)	500 µM (≈ 155 µg/mL)	≥ 125 µM	–	> 500 µM	> 500 µM	–	–	–	–	–	–	–
O=C(O)c1ccc(N=Cc2cc(Cl)cc(Br)c2O)cc1 [1o, 4-[(3-Bromo-5-chloro-2-hydroxybenzylidene)amino]benzoic acid]	31.2 µM (≈ 11.1 µg/mL)	31.2 µM (≈ 11.1 µg/mL)	62.5 µM (≈ 22.2 µg/mL)	62.5 µM (≈ 22.2 µg/mL)	500 µM (≈ 177 µg/mL)	500 µM (≈ 177 µg/mL)	250 µM (≈ 88.6 µg/mL)	500 µM (≈ 177 µg/mL)	–	–	500 µM (≈ 177 µg/mL)	500 µM (≈ 177 µg/mL)	–	–	–	–	–	–	–
O=C(O)c1ccc(N=Cc2cc(Cl)cc(I)c2O)cc1 [1p, 4-[(5-Chloro-2-hydroxy-3-iodobenzylidene)amino]benzoic acid]	7.81 µM (≈ 3.14 µg/mL)	7.81 µM (≈ 3.14 µg/mL)	62.5 µM (≈ 25.1 µg/mL)	62.5 µM (≈ 25.1 µg/mL)	500 µM (≈ 201 µg/mL)	1000 µM (≈ 402 µg/mL)	250 µM (≈ 100 µg/mL)	250 µM (≈ 100 µg/mL)	–	–	62.5 µM (≈ 25.1 µg/mL)	62.5 µM (≈ 25.1 µg/mL)	–	–	–	–	–	–	–
O=C(O)c1ccc(N=Cc2cc(I)cc(I)c2O)cc1 [1q, 4-[(2-Hydroxy-3,5-diiodobenzylidene)amino]benzoic acid]	15.6 µM (≈ 7.7 µg/mL)	15.6 µM (≈ 7.7 µg/mL)	500 µM (≈ 247 µg/mL)	500 µM (≈ 247 µg/mL)	500 µM (≈ 247 µg/mL)	500 µM (≈ 247 µg/mL)	250 µM (≈ 123 µg/mL)	250 µM (≈ 123 µg/mL)	–	–	500 µM (≈ 247 µg/mL)	500 µM (≈ 247 µg/mL)	–	–	–	–	–	–	–
O=C(O)c1ccc(N=Cc2ccc([N+](=O)[O-])o2)cc1 [1r, 4-{[(5-Nitrofuran-2-yl)methylene]amino}benzoic acid]	500 µM (≈ 130 µg/mL)	500 µM (≈ 130 µg/mL)	> 500 µM	> 500 µM	250 µM (≈ 65.1 µg/mL)	500 µM (≈ 130 µg/mL)	62.5 µM (≈ 16.3 µg/mL)	125 µM (≈ 32.5 µg/mL)	–	–	> 500 µM	> 500 µM	–	–	62.5 to 250 µM (≈ 16.3 to 65.1 µg/mL)	16.2 to 32.5 µg/mL	62.5 to 125 µM	–	–
O=C(O)c1ccc(NCc2ccccc2O)cc1 [1u, 4-[(2-Hydroxybenzyl)amino]benzoic acid]	> 500 µM	> 500 µM	> 500 µM	> 500 µM	> 1000 µM	> 1000 µM	1000 µM (≈ 243 µg/mL)	1000 µM (≈ 243 µg/mL)	–	no antimycotic potency	> 500 µM	> 500 µM	–	–	–	–	–	only negligible antimycobacterial activity	avoided any antibacterial action
